Residues, ends and D or L forms follow the SMILES beside them. *: point of attachment. Cbz = O=C(OCc1ccccc1)*
The compounds below were run on ubiquitin-proteasome (assay: Quantification of GFP-RPN1 fusion protein accumulated by proteasome inhibitor (dual LIF CE system)). Details: HEK 293T cells transfected with EGFP-RPN1 and DsRed plasmid vectors; about 0 to about 20 μM inhibitor, two hours; GFP-RPN1 peak height by CE-dual LIF; FIGS. 5a to 5c.
Format: cell-based, human
Protocol: To monitor a ubiquitin-proteasome-dependent protein RPN1 (ribophorin I), a plasmid vector enabling to express a fusion protein including a green fluorescent protein (GFP) and RPN1 was prepared. Specifically, to induce rapid lysis of a human RPN1 protein, a wild type RPN1 polynucleotide (SEQ ID NO: 2) encoding a wild type human RPN1 protein (SEQ ID NO: 1) was used to prepare a mutant RPN-I^N299T polynucleotide (SEQ ID NO: 4) encoding a mutant RPN-I^N299T protein (SEQ ID NO: 3). The mutant RPN-I^N299T polynucleotide (SEQ ID NO: 4) was cloned into a pEGFP-C1 plasmid vector (Clontech Laboratories Inc.) to prepare a pEGFP-RPN1^N299T plasmid which enables expression of a fusion protein including a GFP protein and the RPN1^N299T protein.
On the other hand, a plasmid vector expressing a red fluorescent protein (RFP) as a ubiquitin-proteasome-independent protein which is not lysed by a ubiquitin-proteasome was prepared. Specifically, a pDs-Red2-Express-N1 plasmid vector (Clontech Laboratories Inc.) which enables expression of a Discosoma species RFP (DsRed) was prepared.
As host cells, human embryonic kidney (HEK) 293T cells were cultured in a DMEM (Dulbecco's Modified Eagle's Medium) (Gibco/BRL) including 10% (v/v) fetal bovine serum (FBS) and 1% (v/v) penicillin-streptomycin (Gibco/BRL) at a temperature of 37° C. under the atmosphere of 5% CO2. During the culturing, the medium was replaced with new medium every second day. […]
Subsequently, the supernatant which was the cell lysate was obtained as described in Example 1.2. As described in Example 1.3, a capillary electrophoresis was performed with the obtained supernatant under the electrophoresis conditions of 100 mM Tris-CHES and 10 mM SDS (pH 9.0) by using a dual LIF CE system including an uncoated capillary having an inner diameter of 75 μm and a length of 50 cm to quantify the peak height. […]

Compound | amount of the accumulated proteins (relative intensity of the peaks)
CC(C)C[C@@H](C=O)NC(=O)[C@H](CC(C)C)NC(=O)[C@H](CC(C)C)NC(=O)OCc1ccccc1 [MG132] (Cbz-Leu-Leu-Leu-aldehyde) | varied according to the increase of the concentrations
CC(C)C[C@H](NC(=O)[C@H](Cc1ccccc1)NC(=O)c1cnccn1)B(O)O [bortezomib] | varied according to the increase of the concentrations
CC(C)C[C@H](NC(=O)[C@H](CCc1ccccc1)NC(=O)CN1CCOCC1)C(=O)N[C@@H](Cc1ccccc1)C(=O)N[C@@H](CC(C)C)C(=O)[C@@]1(C)CO1 [carfilzomib] | varied according to the increase of the concentrations
